Data taken from paper PMC11434613, “The Remarkable and Selective In Vitro Cytotoxicity of Synthesized Bola-Amphiphilic Nanovesicles on Etoposide-Sensitive and -Resistant Neuroblastoma Cells” (Nanomaterials, 2024).
Several values for one entry are separate records, joined by “and”; a condition that tells them apart may be missing. Identical values can stand only once.

Experiments:
[1] = MTT cytotoxicity assay on HepG2 cells; format: cell-based, human; details: human
Protocol: (§1) To assess the cytotoxicity properties of BPPB, the MTT (3-(4,5-dimethylthiazol-2-yl)-2,5-diphenyltetrazolium bromide) cell proliferation assay (Abcam, Prodotti Gianni s.r.l., Milano, Italy, Cat#ab2011091) was performed, following the manufacturer’s protocol, as previously reported. This time, the increasing concentrations of BPPB were in the range of 0.4–85.3 µM. The cell survival rate, expressed as cell viability percentage (%), was evaluated based on the experimental outputs of treated groups vs. the untreated groups (CTR) and was calculated as follows: cell viability (%) = (OD treated cells − OD blank)/(OD untreated cells − OD blank) × 100%.
(§2) In this study, the cytotoxicity profile of BPPB was assessed in both immortalized human liver cells (HepG2) cells, as in our previous works, and in transformed African green monkey kidney fibroblast cells (Cos-7), as reported in a recent paper. Specifically, we evaluated the cytotoxicity of BPPB by carrying out both the MTT proliferation assay and the lactate dehydrogenase (LHD) cytotoxicity assay, which measures the LDH activity as an indicator of cell death. Both cell lines were exposed for 24 h to increasing concentrations of BPPB (0.4–85.3 µM). Growth inhibition/death were determined by the MTT test, while cell cytotoxicity was determined by LDH assay, with respect to untreated control cells. Results are reported as bar graphs in Figure 8 and as dispersion graphs in Figures S13 and S14 in Supplementary Materials (Section S2).

HepG2 cells [2] = test: MTT cytotoxicity assay on HepG2 cells; format: cell-based, human; details: for IC50: MTT, concentration range 0.4–85.3 µM
Protocol: as §1, §2

HepG2 cells [3] = test: LDH cytotoxicity assay on HepG2 cells; format: cell-based; details: LDH test; 24 h
Protocol: To assess the cytotoxicity properties of BPPB, the lactate dehydrogenase (LDH) cytotoxicity assay (Abcam, Cat#ab102526) was performed, following manufacturer’s protocol, as previously described. This time, the increasing concentrations of BPPB were in the range 0.4–85.3 µM.
as §2

HTLA-ER cells = test: Cell viability assay (CellTiter 96 AQueous One Solution) on etoposide-resistant HTLA-ER NB cells; format: cell-based, human
From the text: HTLA-230 human stage-IV NB cells were kindly provided by Dr. L. Raffaghello (G. Gaslini Institute, Genoa, Italy). The HTLA-ER cells were selected by treating HTLA-230 parental cells for six months with increasing concentrations of etoposide, as previously reported. Both cell populations were maintained in RPMI 1640 medium (Euroclone Spa, Pavia, Italy) supplemented with 10% fetal bovine serum (FBS, Euroclone Spa, Pavia, Italy), 1% L-glutamine (Euroclone Spa, Pavia, Italy), and 1% Penicillin/Streptomicin (Euroclone Spa, Pavia, Italy) and grown in standard conditions (37 °C humidified incubator with 5% CO2).
To determine the cytotoxic effects of BPPB, in vitro time- and dose-dependent experiments were carried out. Cells were first treated for 24, 48, and 72 h, with increasing concentrations (0.5–50 µM) of the compound. In a subsequent series of the experiments, cells were treated for 24, 48, and 72 h with increasing concentration of BPPB in the range of 0.1–2 µM. […] Cell cultures were carefully monitored before and during the experiments to ensure optimal cell density.
Cell viability was determined by using the CellTiter 96® AQueous One Solution Cell Proliferation Assay (Promega, Madison, WI, USA), as previously described. Briefly, cells (10,000 cells/well) were seeded into 96-well plates (Corning Incorporated, Corning, NY, USA) and then treated. Next, cells were incubated with 20 µL of CellTiter, and the absorbance at 490 nm was recorded using a microplate reader (EL-808, BIO-TEK Instruments Inc., Winooski, VT, USA). IC50 was evaluated by GraphPad Prism 5.4.2 Software (GraphPad Software, Boston, MA, USA).
Results are expressed as the means ± S.D. of at least four independent experiments in which six different wells were analyzed every time for each experimental condition. The statistical significance of differences was determined by two-way analysis of variances (ANOVA) followed by Tukey’s multicomparison test using GraphPad Prism 8.0 (GraphPad Software v8.0, San Diego, CA, USA); p < 0.05 was considered statistically significant. Asterisks or other indicators (see Figures captions) indicate the following p-value ranges: p > 0.05 no symbols, * = p < 0.05, ** = p < 0.01, *** = p < 0.001, **** = p < 0.0001.

Cos-7 cells = test: MTT cytotoxicity assay on Cos-7 cells; format: cell-based, African green monkey; details: for IC50: MTT, concentration range 0.4–85.3 µM
Protocol: as §1, §2

[4] = MTT cytotoxicity assay on Cos-7 cells; format: cell-based, African green monkey; details: African green monkey
Protocol: as §1, §2

c1ccc([P+](CCCCCCCCCCCC[P+](c2ccccc2)(c2ccccc2)c2ccccc2)(c2ccccc2)c2ccccc2)cc1 [BPPB, 1,1-(1,12-dodecanediyl)bis [1,1, 1]-triphenylphosphonium di-bromide]
viability at 24 h ([1]; HepG2 cells, 8.5 µM and 4.3 µM, which value belongs to which concentration is not stated, read-out: Cell viability HepG2 (MTT)): 64.5% | selectivity ratio at 24 h ([1]; read-out: Selectivity index (SI) = IC50 HepG2 / IC50 HTLA-ER): 8.7 | Selectivity index (SI) = IC50 HepG2 / IC50 HTLA-230 (HepG2 cells [2]; 24 h): 40.6 and 40.63 | Selectivity index (SI) = IC50 HepG2 / IC50 HTLA-ER (HepG2 cells [2]; 24 h): 8.68 | IC50 (HepG2 cells [2]; 24 h): 9640 ± 1310 nM | IC50 (HepG2 cells [2]; Homo sapiens, HepG2, 24 h): 9600 nM | Concentrations with a safety profile toward HepG2 (HepG2 cells [2]; MTT test, 24 h): ≤ 8.5 µM | Concentrations with a safety profile toward HepG2 (HepG2 cells [3]): ≤ 8.5 µM | Cell viability HTLA-ER (HTLA-ER cells; 0.5 µM, 24 h, series 0.5–50 µM): not significantly different from that of controls | Fold lower IC50 on HTLA-ER than that of ETO (HTLA-ER cells; 24 h, ETO IC50 592 µM from ref 58): 538 fold | Cell viability HTLA-ER (HTLA-ER cells; 24 h, concentration at which hemolysis was inexistent (concentration not stated)): 14.3% | IC50 (HTLA-ER cells; 24 h exposure, refined concentration range 0.1–2 µM): 1110 nM | IC50 (HTLA-ER cells; 48 h exposure, refined concentration range 0.1–2 µM): 930 ± 95.6 nM | IC50 (HTLA-ER cells; 72 h exposure, refined concentration range 0.1–2 µM): 833 ± 68.5 nM | IC50 (HTLA-ER cells; Homo sapiens, 24 h, 24 h exposure, concentration range 0.5–50 µM): 1850 ± 392 nM | IC50 (HTLA-ER cells; Homo sapiens, 24 h, 24 h exposure, refined concentration range 0.1–2 µM): 1100 nM | IC50 (HTLA-ER cells; Homo sapiens, 48 h, 48 h exposure, concentration range 0.5–50 µM): 732 ± 159 nM | IC50 (HTLA-ER cells; Homo sapiens, 48 h, 48 h exposure, refined concentration range 0.1–2 µM): 900 nM | IC50 (HTLA-ER cells; Homo sapiens, 72 h, 72 h exposure, concentration range 0.5–50 µM): 892 ± 167 nM | IC50 (HTLA-ER cells; Homo sapiens, 72 h, 72 h exposure, refined concentration range 0.1–2 µM): 800 nM | IC50 (HTLA-ER cells; Homo sapiens, 72 h, over 24, 48, 72 h, range 0.1–2 µM): 800 to 1100 nM | viability at 0.5 µM (HTLA-ER cells; Homo sapiens, 0.5 µM, 48 h, series 0.5–50 µM): 54.1% | viability at 0.5 µM (HTLA-ER cells; Homo sapiens, 0.5 µM, 72 h, series 0.5–50 µM): 62% | Cell viability HTLA-ER (plateau) (HTLA-ER cells; concentrations above 5–10 µM up to 50 µM, all exposure times): 7–8% | Selectivity index (SI) = IC50 Cos-7 / IC50 HTLA-230 (Cos-7 cells; 24 h): 20.72 | IC50 (Cos-7 cells; 24 h): 4910 ± 810 nM | IC50 (Cos-7 cells; Chlorocebus sabaeus, COS-7, 24 h): 4900 nM | Concentrations with a safety profile toward Cos-7 (Cos-7 cells; MTT test, 24 h): ≤ 4.3 µM | viability at 24 h, 4.3 µM ([4]; Cos-7 cells, 4.3 µM, read-out: Cell viability Cos-7 (MTT)): 64.2% | viability at 24 h, 8.5 µM ([4]; Cos-7 cells, 8.5 µM, read-out: Cell viability Cos-7 (MTT)): 27.4% | selectivity ratio at 24 h ([4]; read-out: Selectivity index (SI) = IC50 Cos-7 / IC50 HTLA-ER): 4.42
